Data: US12357650B2, “Methods and compositions for cancer therapies that include delivery of halogenated thymidines and thymidine phosphorlylase inhibitors in combination with radiation” (Shuttle Pharmaceuticals, Inc., priority 2017, dated 2025)
Where “and” joins values, the source holds several entries; their conditions need not be identical. Equal entries are not always repeated. Where two headings read alike, the source gives them in different places.

Assays:
cells = conditions: as compared to cells without the defective DNA; cited from earlier work
[1] = system: DNA of tumors and adjacent normal tissue; conditions: small series of patients with head and neck cancers or liver metastases from colorectal cancer; cited from earlier work
[2] = Pharmacokinetic profile of IUdR (100 mg/kg) with and without Tipiracil in rats following single oral administration; type: in vivo, male Sprague-Dawley rats
Procedure: The purpose of this study was to determine the pharmacokinetics parameters of IUdR in male Sprague-Dawley rats following single oral (PO) administration the IUdR (i.e., Compound A) and Tipiracil (i.e., Compound B).
A control formulation was prepared where Compound A was dissolved in 5% DMSO+95% PBS to yield a final concentration of 10 mg/mL for oral administration. The prepared formulation was white suspension (pH˜7).
A second formulation was prepared where Compound A and Compound B were dissolved in 5% DMSO+95% PBS to yield a final concentration of 10 mg/mL (Compound A) and 0.79 mg/mL (Compound B) for oral administration. The prepared formulation was white suspension (pH˜7).
Animal Acquisition and Assignment to Study. A total of 8 male experimental Sprague-Dawley Rats were transferred from stock colony, and 6 animals were placed on study.
Dose Administration. The test article was administered via a single oral administration.
Sample Collection and Bioanalysis. Blood samples (approximately 200 μL/sample) were collected via jugular vein at Pre-dose and Post-dose (5 min, 15 min, 30 min, 1 h, 2 h, 4 h, 6 h, 8 h and 24 h). Blood samples were placed into tubes containing K2EDTA and centrifuged conditions at 8000 rpm for 6 minutes at 2-8° C. to separate plasma from the samples. Following centrifugation, the resulting plasma were transferred to clean tubes and stored frozen at −80° C. pending bioanalysis.
Pharmacokinetic Analysis. The PK analysis and interpretation of the results were conducted by Medicilon Preclinical Research (Shanghai) LLC. A non-compartmental module of WinNonlin® Professional was used to calculate parameters. Any BLQs (LLOQ=10.0 ng/mL for Compound A) were omitted when calculate the PK parameters.
Clinical Observations. No abnormal observations were noted.

## O=c1[nH]c(=O)n([C@H]2C[C@H](O)[C@@H](CO)O2)cc1I [Compound A, 5-iodo-2′-deoxyuridine]
cells
  increase in susceptibility of cells to the lethal effects of RT: two-three fold
[1]
  % IUdR-DNA incorporation in adjacent normal tissue: less than 1%
  % IUdR-DNA incorporation in tumors: ≤ 5%
[2]; PO-100 mg/kg Compound A alone or + 7.9 mg/kg Compound B, 0.083 hr, individual animals, LLOQ 10 ng/mL
  Plasma Concentration of Compound A: 192.41 ng/mL and 168.24 ng/mL
[2]; PO-100 mg/kg Compound A alone or + 7.9 mg/kg Compound B, 0.25 hr, individual animals, LLOQ 10 ng/mL
  Plasma Concentration of Compound A: 628.30 ng/mL and 538.67 ng/mL
[2]; PO-100 mg/kg Compound A alone or + 7.9 mg/kg Compound B, 0.5 hr, individual animals, LLOQ 10 ng/mL
  Plasma Concentration of Compound A: 755.39 ng/mL and 684.80 ng/mL
[2]; PO-100 mg/kg Compound A alone or + 7.9 mg/kg Compound B, 1 hr, individual animals, LLOQ 10 ng/mL
  Plasma Concentration of Compound A: 596.55 ng/mL and 772.49 ng/mL
[2]; PO-100 mg/kg Compound A alone or + 7.9 mg/kg Compound B, 2 hr, individual animals, LLOQ 10 ng/mL
  Plasma Concentration of Compound A: 645.17 ng/mL and 943.79 ng/mL
[2]; PO-100 mg/kg Compound A alone or + 7.9 mg/kg Compound B, 4 hr, individual animals, LLOQ 10 ng/mL
  Plasma Concentration of Compound A: 316.82 ng/mL and 441.37 ng/mL
[2]; PO-100 mg/kg Compound A alone or + 7.9 mg/kg Compound B, 6 hr, individual animals, LLOQ 10 ng/mL
  Plasma Concentration of Compound A: BLQ and 56.61 ng/mL
[2]; PO-100 mg/kg Compound A alone or + 7.9 mg/kg Compound B, 8 hr, individual animals, LLOQ 10 ng/mL
  Plasma Concentration of Compound A: BLQ
[2]; PO-100 mg/kg Compound A alone or + 7.9 mg/kg Compound B, 24 hr, individual animals, LLOQ 10 ng/mL
  Plasma Concentration of Compound A: BLQ
[2]; male, Sprague-Dawley, rat, plasma, 100 mg/kg, single oral dose, Example 1, sub-heading prints PO-20 (Compound A) alone or + 7.9 (Compound B) mg/kg, individual animals
  AUC(0-inf): 2630 ng·h/mL
[2]; male, Sprague-Dawley, rat, plasma, 100 mg/kg, single oral dose, Example 1, sub-heading prints PO-20 (Compound A) alone or + 7.9 (Compound B) mg/kg, individual animals, read-out: t1/2 of Compound A (converted)
  half-life: 0.89 h
[2]; male, Sprague-Dawley, rat, plasma, oral, 100 mg/kg, PO-100 mg/kg Compound A alone or + 7.9 mg/kg Compound B, 0.083 hr, group mean, read-out: Plasma Concentration of Compound A, Mean
  concentration at 0.083 hr: 184 ng/mL
[2]; male, Sprague-Dawley, rat, plasma, oral, 100 mg/kg, PO-100 mg/kg Compound A alone or + 7.9 mg/kg Compound B, 0.083 hr, individual animals, LLOQ 10 ng/mL, read-out: Plasma Concentration of Compound A
  concentration at 0.083 hr: 191 ng/mL
[2]; male, Sprague-Dawley, rat, plasma, oral, 100 mg/kg, PO-100 mg/kg Compound A alone or + 7.9 mg/kg Compound B, 0.25 hr, group mean, read-out: Plasma Concentration of Compound A, Mean
  concentration at 0.25 hr: 552 ng/mL
[2]; male, Sprague-Dawley, rat, plasma, oral, 100 mg/kg, PO-100 mg/kg Compound A alone or + 7.9 mg/kg Compound B, 0.25 hr, individual animals, LLOQ 10 ng/mL, read-out: Plasma Concentration of Compound A
  concentration at 0.25 hr: 489 ng/mL
[2]; male, Sprague-Dawley, rat, plasma, oral, 100 mg/kg, PO-100 mg/kg Compound A alone or + 7.9 mg/kg Compound B, 0.5 hr, group mean, read-out: Plasma Concentration of Compound A, Mean
  concentration at 0.5 hr: 689 ng/mL
[2]; male, Sprague-Dawley, rat, plasma, oral, 100 mg/kg, PO-100 mg/kg Compound A alone or + 7.9 mg/kg Compound B, 0.5 hr, individual animals, LLOQ 10 ng/mL, read-out: Plasma Concentration of Compound A
  concentration at 0.5 hr: 627 ng/mL
[2]; male, Sprague-Dawley, rat, plasma, oral, 100 mg/kg, PO-100 mg/kg Compound A alone or + 7.9 mg/kg Compound B, 1 hr, group mean, read-out: Plasma Concentration of Compound A, Mean
  concentration at 1 hr: 642 ng/mL
[2]; male, Sprague-Dawley, rat, plasma, oral, 100 mg/kg, PO-100 mg/kg Compound A alone or + 7.9 mg/kg Compound B, 1 hr, individual animals, LLOQ 10 ng/mL, read-out: Plasma Concentration of Compound A
  concentration at 1 hr: 556 ng/mL
[2]; male, Sprague-Dawley, rat, plasma, oral, 100 mg/kg, PO-100 mg/kg Compound A alone or + 7.9 mg/kg Compound B, 2 hr, group mean, read-out: Plasma Concentration of Compound A, Mean
  concentration at 2 hr: 788 ng/mL
[2]; male, Sprague-Dawley, rat, plasma, oral, 100 mg/kg, PO-100 mg/kg Compound A alone or + 7.9 mg/kg Compound B, 2 hr, individual animals, LLOQ 10 ng/mL, read-out: Plasma Concentration of Compound A
  concentration at 2 hr: 774 ng/mL
[2]; male, Sprague-Dawley, rat, plasma, oral, 100 mg/kg, PO-100 mg/kg Compound A alone or + 7.9 mg/kg Compound B, 4 hr, group mean, read-out: Plasma Concentration of Compound A, Mean
  concentration at 4 hr: 345 ng/mL
[2]; male, Sprague-Dawley, rat, plasma, oral, 100 mg/kg, PO-100 mg/kg Compound A alone or + 7.9 mg/kg Compound B, 4 hr, individual animals, LLOQ 10 ng/mL, read-out: Plasma Concentration of Compound A
  concentration at 4 hr: 276 ng/mL
[2]; male, Sprague-Dawley, rat, plasma, oral, 100 mg/kg, PO-100 mg/kg Compound A alone or + 7.9 mg/kg Compound B, 6 hr, group mean (BLQ omitted), read-out: Plasma Concentration of Compound A, Mean
  concentration at 6 hr: 55.3 ng/mL
[2]; male, Sprague-Dawley, rat, plasma, oral, 100 mg/kg, PO-100 mg/kg Compound A alone or + 7.9 mg/kg Compound B, 6 hr, individual animals, LLOQ 10 ng/mL, read-out: Plasma Concentration of Compound A
  concentration at 6 hr: 54 ng/mL
[2]; male, Sprague-Dawley, rat, plasma, oral, 100 mg/kg, PO-100 mg/kg Compound A alone or + 7.9 mg/kg Compound B, 8 hr, individual animals, LLOQ 10 ng/mL
  concentration at 8 hr: 14.1 ng/mL
[2]; male, Sprague-Dawley, rat, plasma, po, 100 mg/kg, oral administration, Example 1 (100 mg/kg IUdR, ± 7.9 mg/kg Tipiracil), comparison table, mean, read-out: AUC(0-t) of Compound A
  AUC(0-t): 2720 ng·h/mL
[2]; male, Sprague-Dawley, rat, plasma, po, 100 mg/kg, oral administration, Example 1 (100 mg/kg IUdR, ± 7.9 mg/kg Tipiracil), comparison table, mean, read-out: Cmax of Compound A
  Cmax: 824 ng/mL
[2]; male, Sprague-Dawley, rat, plasma, po, 100 mg/kg, single oral dose, Example 1, sub-heading prints PO-20 (Compound A) alone or + 7.9 (Compound B) mg/kg, group mean
  Tmax: 1.5 h
